Patent US8236279B2, “Bisaminoethanethiol-targeting ligand conjugates and compositions” (priority 1999, dated 2012)
“Also recorded” adds a separate entry of the source.

How the values were obtained:
[1] = list continues over wrapped lines of the table; cited from earlier work
[2] = test system: Breast Tumor-Bearing Rats (13762 tumor cell line); assay: Tissue distribution (biodistribution) studies in breast tumor-bearing rats; conditions: for Biodistribution: Brain / Biodistribution: Heart / Biodistribution: Spleen / Tumor/Blood ratio / Tumor/Liver ratio / Tumor/Muscle ratio: Table 9; for tumor/blood and tumor/muscle count density ratios, course over time: […] (so in the source)
Experimental: Studies performed 14 to 17 days after implantation when tumors reached approximately 1 cm diameter. Animals were anesthetized with ketamine (10-15 mg/rat, intraperitoneally) before each procedure.
The injected mass of each ligand was 10 μg per rat. At 20 min, 1, 2 and 4 h following administration of the radiopharmaceuticals, the anesthetized animals were sacrificed and the tumor and selected tissues were excised, weighed and counted for radioactivity by a gamma counter (Packard Instruments, Downers Grove, Ill.). The biodistribution of tracer in each sample was calculated as percentage of the injected dose per gram of tissue wet weight (% ID/g). Counts from a diluted sample of the original injectate were used for reference. Tumor/nontarget tissue count density ratios were calculated from the corresponding % ID/g values. Student-t test was used to assess the significance of differences between two groups.
Studies performed 14 to 17 days after implantation when tumors reached approximately 1 cm diameter. Rats were anesthetized with ketamine (10-15 mg/rat, intraperitoneally) before each procedure.
In tissue distribution studies, each animal was injected intravenously with 370-550 KBq of ^99mTc-EC-MN or ^99mTc-EC (n=3/time point). The injected mass of ^99mTc-EC-MN was 10 μg per rat. At 0.5, 2 and 4 hrs following administration of the radiotracers, the rats were sacrificed and the selected tissues were excised, weighed and counted for radioactivity. The biodistribution of tracer in each sample was calculated as percentage of the injected dose per gram of tissue wet weight (% ID/g). Tumor/nontarget tissue count density radios were calculated from the corresponding % ID/g values. […] Student t-test was used to assess the significance of differences between groups.
At 0.5, 2 and 4 hrs following administration of the radiotracers, the rats were sacrificed and the selected tissues were excised, weighed and counted for radioactivity. The biodistribution of tracer in each sample was calculated as percentage of the injected dose per gram of tissue wet weight (% ID/g). Tumor/nontarget tissue count density ratios were calculated from the corresponding % ID/g values. Student t-test was used to assess the significance of differences between groups.
(§1) At 0.5, 2 and 4 hours following administration of the radiotracers, the rats were sacrificed and the selected tissues were excised, weighed and counted for radioactivity. The biodistribution of tracer in each sample was calculated as percentage of the injected dose per gram of tissue wet weight (% ID/g). Tumor/nontarget tissue count density ratios were calculated from the corresponding % ID/g values.
Studies were performed 14 to 17 days after implantation when tumors reached approximately 1 cm diameter. Rats were anesthetized with ketamine (10-15 mg/rat, intraperitoneally) before each procedure.
as §1, with “In tissue distribution studies, each animal was injected intravenously with 10-20 μCi (per rat) or 1-2 μCi (per mouse) of ^99mTc-EC or ^99mTc-EC-DG (n=3/time point). The injected mass of ^99mTc-EC-DG was 1 mg per rat. At” for “At”, “rodents” for “rats”

[3] = test system: breast (13762) and lung (A549) cancer cells; assay: Effect of d- and l-glucose on cellular uptake; format: cell-based; conditions: 1-2.0 mg/well, 2 hours incubation
Experimental: To evaluate if the uptake of ^99mTc-EC-deoxyglucose is mediated via d-glucose mechanism, d- and l-glucose (1 mg and 2.0 mg) were added to, each well containing either breast or lung cancer cells (50,000/0.5 ml/well), along with 2 μCi of ^99mTc-EC-deoxyglucose and ^18F-FDG. After 2 hours incubation, the cells were washed with phosphate buffered saline 3 times and followed by trypsin to lose the cells. The cells were counted by a gamma counter.

[4] = test system: A549 lung cancer cell line; assay: In vitro cellular uptake assay; format: cell-based, human; conditions: 2 μCi per well, 80,000 cells, incubation 0.5-4 hours
Experimental: After incubation at 0.5-4 hours, the cells were washed with phosphate buffered saline 3 times and followed by trypsin to lose the cells.
In vitro cellular uptake assay was conducted by using a human lung cancer cell line (A549). Two μCi of ^99mTc-EC-DG and ^18F-FDG were added to wells containing 80,000 cells each. After incubation at 0.5-4 hours, the cells were washed with phosphate buffered saline 3 times and followed by trypsin to lose the cells. The cells were then counted by a gamma counter.

[5] = test system: patients (3 brain tumors and 2 lung diseases); assay: Preliminary clinical imaging studies in patients (brain tumors, lung diseases); format: in vivo, human; conditions: images 1-2 hours post-administration
Experimental: Scintigraphic images, using a gamma camera equipped with low-energy, parallel-hole collimator, were obtained 0.5, 2 and 4 hours after i.v. injection of 100 μCi of the radiotracer. The animal model used was breast tumor-bearing rats. […] Preliminary clinical studies were conducted in 5 patients (3 brain tumors and 2 lung diseases).

[6] = test system: breast tumor-bearing rats; assay: Scintigraphic (gamma camera) imaging studies in tumor-bearing rats; format: in vivo; conditions: different time points (0.5-4 hrs) after i.v. injection
hexokinase = assay: Hexokinase assay (glucose phosphorylation); format: biochemical; conditions: UV wavelength 340 nm
Experimental: To determine if EC-DG mimics glucose phosphorylation, a hexokinase assay was conducted. Using a ready made kit (Sigma Chemical Company), EC-DG, glucosamine and glucose (standard) were assayed at UV wavelength 340 nm.

[7] = Effect of loading on blood glucose level in normal rats; format: in vivo, Fischer 344 rats; conditions: insulin (5 units) after 30 minutes
Experimental: The blood glucose level (mg/dl) was determined by a glucose meter (Glucometer DEX, Bayer Corporation, Elkhart, Ind.). Prior to the study, the baseline of blood glucose level was obtained. […] In a separate experiment, a group of rats was administered EC-deoxyglucose and FDG. Insulin (5 units) was administered after 30 minutes.

Water solubility = format: physicochemical
[8] = test system: two lung cancer cell lines and one breast cell line (A549, H1299, 13762); assay: Effect of glucose on cellular uptake; format: cell-based
Experimental: Neomycin is known to influence glucose absorption (Rogers et al., 1968; Fanciulli et al., 1994). […] After incubation, the cells were washed with phosphate buffered saline 3 times and followed by trypsin to lose the cells. The cells were then counted by a gamma counter.

Molecule: COc1cc(NS(C)(=O)=O)ccc1Nc1c2ccccc2nc2ccccc12 [Amsacrine]
- Delayed toxicity [1]: Bone marrow depression;

Molecule: [O]=[99Tc](=[O])(=[O])[O-] [^99mTc Pertechnetate]
- Biodistribution: Brain ([2]; 2 Hour): 0.022 ± 0.002 % ID/g
- Biodistribution: Heart ([2]; 2 Hour): 0.145 ± 0.015 % ID/g
- Biodistribution: Spleen ([2]; 2 Hour): 0.187 ± 0.014 % ID/g
- Tumor/Blood ratio ([2]; 2 Hour): 0.497 ± 0.073
- Tumor/Liver ratio ([2]; 2 Hour): 1.084 ± 0.115
- Tumor/Muscle ratio ([2]; 2 Hour): 4.302 ± 0.093
- Biodistribution: Brain ([2]; 4 Hour): 0.031 ± 0.009 % ID/g
- Biodistribution: Heart ([2]; 4 Hour): 0.166 ± 0.012 % ID/g
- Biodistribution: Spleen ([2]; 4 Hour): 0.225 ± 0.017 % ID/g
- Tumor/Blood ratio ([2]; 4 Hour): 0.597 ± 0.144
- Tumor/Liver ratio ([2]; 4 Hour): 0.865 ± 0.270
- Tumor/Muscle ratio ([2]; 4 Hour): 6.689 ± 1.458
- Biodistribution: Brain ([2]; 30 Min.): 0.038 ± 0.014 % ID/g
- Biodistribution: Heart ([2]; 30 Min.): 0.275 ± 0.089 % ID/g
- Biodistribution: Spleen ([2]; 30 Min.): 0.331 ± 0.108 % ID/g
- Tumor/Blood ratio ([2]; 30 Min.): 0.472 ± 0.093
- Tumor/Liver ratio ([2]; 30 Min.): 1.084 ± 0.023
- Tumor/Muscle ratio ([2]; 30 Min.): 4.788 ± 0.833

Molecule: OC[C@H]1OC(O)[C@H]([18F])[C@@H](O)[C@@H]1O (some centres unmarked) [^18F-FDG]
- effect of d-glucose on cellular uptake [3]: decreased uptake
- effect of l-glucose on cellular uptake [3]: no influence

Molecule: CCC1(c2ccc(N)cc2)CCC(=O)NC1=O (centres unmarked) [Aminogiutethimide]
- Acute Toxicity [1]: Drowsiness; nausea; dizziness; rash
- Delayed toxicity [1]: Hypothryroidism (rare); bone

Molecule: O=C(N[C@H]1C(O)O[C@H](CO)[C@@H](O)[C@@H]1O)[C@@H]1C[S][Tc]23(=[O])[S]C[C@@H](C(=O)N[C@H]4C(O)O[C@H](CO)[C@@H](O)[C@@H]4O)[N]2CC[N]13 (some centres unmarked) [^99mTc-EC-DG]
- cellular uptake [4]: comparable to FDG
- differentiation of benign versus malignant tumors [5]: able to differentiate benign versus malignant tumors
- uptake in benign meningioma [5]: no focal intensed uptake; also recorded: poor uptake
- uptake in lung tumor [5]: focal intensed uptake; also recorded: high uptake
- uptake in malignant astrocytoma [5]: high uptake
- uptake in patient with TB [5]: no focal intensed uptake; also recorded: Poor uptake
- effect of d-glucose on cellular uptake [3]: decreased uptake
- effect of l-glucose on cellular uptake [3]: no influence
- tumor-to tissue ratios, course over time, compared to 99mTc-EC and free technetium ([2]; 0.5-4 hours): increased as a function of time
- Scintigraphic images: visualization of tumor / tumor uptake [6]: visualized well
- Scintigraphic images: visualization of tumor / tumor uptake ([6]; listed as 99mTc-EC-deoxyglucose): well visualized

Molecule: O=[N+]([O-])c1nccn1CC(O)C[18F] (centres unmarked) [[^18F]FMISO]
- tumor-to-blood uptake ratio, comparison among [18F]FMISO, [131I]IMISO and 99mTc-EC-MN ([2]; 30 min, 2 and 4 hrs post-injection): highest
- tumor/blood and tumor/muscle count density ratios, course over time [2]: gradually increased

Molecule: OC[C@H]1OC(O)[C@H](O)[C@@H](O)[C@@H]1O (some centres unmarked) [Glucose]
- hexokinase assay (hexokinase): positive

Molecule: Aldesleukin
- Acute Toxicity [1]: Fever; fluid retention; hypertension;
- Delayed toxicity [1]: Neuropsychiatric disorders;

Molecule: N[C@H]1C(O)O[C@H](CO)[C@@H](O)[C@@H]1O (some centres unmarked) [glucosamine]
- hexokinase assay (hexokinase): positive

Molecule: O=[N+]([O-])c1nccn1CC(O)C[131I] (centres unmarked) [[^131I]IMISO]
- Tumor/blood and tumor/muscle ratios, 99mTc-EC-MN versus [131I]IMISO ([2]; 2 and 4 hrs postinjection, (p<0.05) as printed): not significantly different
- tumor/blood and tumor/muscle count density ratios, course over time [2]: gradually increased

Molecule: OC[C@H]1OC(O)[C@H](F)[C@@H](O)[C@@H]1O (some centres unmarked) [FDG]
- increased blood glucose level on co-administration with insulin [7]: suppressed

Molecule: L,L-ethylenedicysteine [EC]
- water solubility (Water solubility): water soluble

Molecule: O=C(O)[C@@H]1C[S][99Tc]23(=[O])[S]C[C@@H](C(=O)O)[N]2CC[N]13 [^99mTc-EC, ^99mTc-L,L-ethylenedicysteine]
- cellular uptake of control [8]: no uptake
- tumor/blood count density ratios, course over time ([2]; 20 min-4 h): decreased
- tumor/blood and tumor/muscle count density ratios, course over time [2]: did not alter
- tumor-to-blood and tumor-to-muscle values, course over time ([2]; same time period (0.5-4 hours)): time-dependent decrease
- Scintigraphic images: visualization of tumor / tumor uptake [6]: no apparent tumor uptake; also recorded: less tumor uptake

B1: Asparaginase: anticancer drug listed in Table 2 (protein, UniProt P00805 23-348, looked up)
L-asparaginase 2: LPNITILATGGTIAGGGDSATKSNYTVGKVGVENLVNAVPQLKDIANVKGEQVVNIGSQDMNDNVWLTLAKKINTDCDKTDGFVITHGTDTMEETAYFLDLTVKCDKPVVMVGAMRPSTSMSADGPFNLYNAVVTAADKASANRGVLVVMNDTVLDGRDVTKTNTTDVATFKSVNYGPLGYIHNGKIDYQRTPARKHTSDTPFDVSKLNELPKVGIVYNYANASDLPAKALVDAGYDGIVSAGVGNGNLYKSVFDTLATAAKTGTAVVRSSRVPTGATTQDAEVDDAKYGFVASGTLNPQKARVLLQLALTQTKDPQQIQQIFNQY
- Acute Toxicity [1]: Nausea and vomiting; fever; chills;
